Entries after “also recorded” stand apart in the source; their conditions may differ.
Experiments:
[1] = target: T1, peptide transporter (PEPT1) (Homo sapiens, UniProt P46059); conditions: in vivo
T1 sequence (P46059 1-708): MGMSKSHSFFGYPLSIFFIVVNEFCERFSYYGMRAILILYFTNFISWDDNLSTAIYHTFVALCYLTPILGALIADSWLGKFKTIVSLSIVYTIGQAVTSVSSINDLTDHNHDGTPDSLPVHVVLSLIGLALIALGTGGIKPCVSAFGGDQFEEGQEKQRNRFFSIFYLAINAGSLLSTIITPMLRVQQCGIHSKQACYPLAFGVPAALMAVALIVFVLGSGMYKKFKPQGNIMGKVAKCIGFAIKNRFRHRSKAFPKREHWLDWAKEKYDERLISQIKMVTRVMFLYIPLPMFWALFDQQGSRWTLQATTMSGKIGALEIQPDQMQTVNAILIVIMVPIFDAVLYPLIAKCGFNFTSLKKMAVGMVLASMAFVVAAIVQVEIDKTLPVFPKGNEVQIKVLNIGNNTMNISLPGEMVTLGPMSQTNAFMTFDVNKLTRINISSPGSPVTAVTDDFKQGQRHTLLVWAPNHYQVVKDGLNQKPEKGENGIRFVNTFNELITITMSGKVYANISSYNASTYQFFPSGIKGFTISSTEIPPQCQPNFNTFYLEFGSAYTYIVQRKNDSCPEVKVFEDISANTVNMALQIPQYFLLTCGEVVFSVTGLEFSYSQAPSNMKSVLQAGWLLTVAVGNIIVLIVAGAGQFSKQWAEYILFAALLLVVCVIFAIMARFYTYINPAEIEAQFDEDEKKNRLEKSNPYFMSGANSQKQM

[2] = system: ENS neurons in HIOs+NCCs; assay: Live imaging of Ca2+ flux (GCaMP6f) in HIOs+NCCs in vitro; assay type: cell-based, human; conditions: 30 mM; HIOs+GCaMP6 expressing NCCs
Description: The accessibility of in vitro grown HIOs allowed us to test the functionality of neurons using live imaging with the Ca2+ sensor GCaMP6f19. To do this, Applicant generated HIOs and incorporated into them NCCs that were derived from a PSC line containing GCaMP6 (FIG. 17A). Imaging of neural activity in HIOs grown for 8 weeks in vitro detected broad, spontaneous, and rapid calcium transients within neurons. When individual neurons were monitored there was an obvious periodicity of calcium efflux in the range of 3-4 seconds/neuron (FIGS. 17B and 17C).

[3] = system: HIO+NCC tissues; assay: Ex-vivo intestinal motility, organ bath, muscle strips of engrafted HIO+NCC; assay type: cell-based, human
[4] = system: HIO+NCC tissue; assay type: cell-based, human
[5] = system: human pluripotent stem cells; assay: Directed differentiation of human pluripotent stem cells into definitive endoderm; assay type: cell-based; conditions: 100 ng ml-1 Activin A for 3 d
Procedure: Human intestinal organoids were generated and maintained as previously described (Spence et al, Nature 2011 and McCracken et al. Nat. Protoc. 2011). Human embryonic stem cells and induced pluripotent stem cells were grown in feeder-free conditions in six-well Nunclon surface plates (Nunc) coated with Matrigel (BD Biosciences) and maintained in mTESR1 media (Stem Cell Technologies). For induction of definitive endoderm (DE), human ES or iPS cells were passaged with Dispase or Accutase (Invitrogen) and plated at a density of 100,000 cells per well in a Matrigel-coated, Nunclon surface 24-well plate. For Accutase split cells, 10 μM Y27632 compound (Sigma) was added to the media for the first day. Cells were allowed to grow until they reached 80-95% confluence. Cells were then treated with 100 ng ml-1 of Activin A for 3 d as previously described (D'Amour et al. Nat. Biotechnol. 2005). DE was then treated with hindgut induction medium (RPMI 1640, 2 mM L-glutamine, 2% decomplemented FBS, penicillin-streptomycin and 100 ng ml-1 Activin A) for 4 d with 500 ng mL-1 FGF4 (R&D) and 3 μM Chiron 99021 (Tocris) to induce formation of mid-hindgut spheroids. […]

[6] = system: vagal-level Hox genes HOXB3, HOXB5, and HOXB7; assay: Posteriorization of human PSC-derived neurospheres/NCCs, Hox gene expression by qRT-PCR; assay type: cell-based; conditions: two days (48 hours) at the neurosphere stage; RA 2 μM
Procedure: Cells were fed mTeSR1 media and routinely passaged using Dispase II (Gibco). NCCs and HIOs were generated and combined at an early stage of intestinal differentiation to generate HIOs containing ENS. Briefly, for NCC generation (FIG. 1), hPSCs were treated with collagenase IV (500 U/mL) in mTeSR1 for 60 min to detach colonies. Cells were washed to remove collagenase, then gently triturated and resuspended in neural induction media on non-TC treated petri dishes. Neural induction media was changed daily and retinoic acid (2 μM) was added on days 4 and 5 for posteriorization. Day 6 free-floating neurospheres were plated on fibronectin (3 μg/cm2) and fed neural induction media without RA for 4 days. Migrated cells were collected using a brief Accutase treatment (2-3 min) and passaged onto fibronectin or used immediately for combining with HIOs. NCCs were differentiated essentially as described for neuroglial 9 and mesenchymal lineages 36. […] Following the formation of gut tube spheroids, Applicant gently centrifuged spheroids +/−NCCs and embedded them in Matrigel. […]
Total RNA from cells and organoids was isolated using NucleoSpin RNA isolation Kit (Macherey-Nagel). […] Applicant performed qPCR using QuantiTect SYBR Green PCR Kit (Qiagen) on a BioRad CFX96 Real-Time PCR Detection System. […]

[7] = system: vagal-level Hox genes HoxB3 and HoxB7; assay: Chick cranial NCC culture, Hox gene expression; assay type: cell-based; conditions: 2 μM RA or 4 ng/mL FGF4 for 48 hours
Procedure: Chicken eggs were purchased from Charles River and incubated at 39° C. until they reached the desired Hamburger and Hamilton stage. For chicken NCC culture, dorsal neural tubes from cranial or trunk region of HH8 embryos were dissected by Gastromaster and cultured on matrigel-coated tissue culture dish with NCC culture medium (BajPai R et al, 2010) for 24 hours. The neural ectoderm was scrapped off the plate by tungsten needle after NCCs migrated out from the neural tube explants. The NCCs remained on the plate were then treated with 4 ng/mL FGF4 or 2 μM Retinoic acid for 48 hours. For NCCs injection, GFP-labeled human PSC-derived NCCs were collected and injected intersomitically into HH10-12 chicken embryos. The embryos were harvested around HH38 for analysis.

C[C@H](CS)C(=O)N1CCC[C@H]1C(=O)O [Captopril]
fluorescence within the epithelium after injection of labeled peptide + competitive inhibitor [1]: little to no fluorescence was observed

[Cl-].[K+] [KC1]
neuronal calcium response [2]: large wave of neuronal calcium efflux

COC(=O)[C@@H](N)CCCNC(=N)N[N+](=O)[O-] [L-NAME, NG-nitro-L-arginine methyl ester]
effect on relaxation after DMPP stimulation ([3]; L-NAME applied 5 min before DMPP (10 μM) stimulation): significantly decreased the relaxation

CN(C)c1ccc2nc3ccc(=[N+](C)C)cc-3sc2c1 [Methylene Blue]
effect on spontaneous phasic contractions (ICC activity) ([3]; Methylene Blue 50 μM, no neuronal stimulation): abolished phasic contractions; also recorded: loss of contractile activity

NC1=N[C@H](O)[C@H]2[C@H]3O[C@]4(O)O[C@@H]([C@@H](O)[C@@]2(N1)[C@@H]4O)[C@]3(O)CO [TTX, tetrodotoxin]
effect on muscle relaxation in response to DMPP and or veratridine [3]: inhibited the ability of the neurons to induce muscle relaxation
effect on contractions/motility triggered by low voltage EFS [4]: completely inhibited and lost

B1: Activin A: growth factor used to induce definitive endoderm (protein, UniProt P08476 311-426, looked up)
Inhibin beta A chain: GLECDGKVNICCKKQFFVSFKDIGWNDWIIAPSGYHANYCEGECPSHIAGTSGSSLSFHSTVINHYRMRGHSPFANLKSCCVPTKLRPMSMLYYDDGQNIIKKDIQNMIVEECGCS
modifications: Inhibin beta A chain
notes: growth factor used to induce definitive endoderm
differentiation into definitive endoderm (FOXA2 and SOX17) [5]: efficient differentiation into definitive endoderm

B2: FGF4: growth factor tested as a different posterizing factor (protein, UniProt P08620 31-206, looked up)
Fibroblast growth factor 4: APTAPNGTLEAELERRWESLVALSLARLPVAAQPKEAAVQSGAGDYLLGIKRLRRLYCNVGIGFHLQALPDGRIGGAHADTRDSLLELSPVERGVVSIFGVASRFFVAMSSKGKLYGSPFFTDECTFKEILLPNNYNAYESYKYPGMFIALSKNGKTKKGNRVSPTMKVTHFLPRL
expression of vagal-level Hox genes in human PSC-derived NCCs [6]: little effect
Hox gene expression in chick cranial NCCs [7]: had no effect

From patent US11584916B2, “Method of making in vivo human small intestine organoids from pluripotent stem cells” (Children's Hospital Medical Center, priority 2014, dated 2023)
